Data as given in ChEMBL document CHEMBL1153466, “Isoplatensimycin: Synthesis and biological evaluation” (2009).
In brackets after ≈: the same amount, converted by molar mass.

Key:
Assay type in all cases: functional
Staphylococcus aureus [1] = assay: Antimicrobial activity against methicillin-susceptible Staphylococcus aureus isolate 4
Staphylococcus aureus [2] = assay: Antimicrobial activity against vancomycin-intermediate Staphylococcus aureus isolate 9
Staphylococcus aureus [3] = assay: Antimicrobial activity against methicillin-resistant Staphylococcus aureus isolate 8
Staphylococcus aureus [4] = assay: Antimicrobial activity against methicillin-resistant Staphylococcus aureus isolate 7
Staphylococcus aureus [5] = assay: Antimicrobial activity against vancomycin-resistant Staphylococcus aureus isolate 12
Staphylococcus aureus [6] = assay: Antimicrobial activity against methicillin-resistant Staphylococcus aureus isolate 6
Staphylococcus aureus [7] = assay: Antimicrobial activity against vancomycin-resistant Staphylococcus aureus isolate 15
Staphylococcus aureus [8] = assay: Antimicrobial activity against vancomycin-susceptible Staphylococcus aureus isolate 11
Staphylococcus aureus [9] = assay: Antimicrobial activity against methicillin-resistant Staphylococcus aureus isolate 5
Staphylococcus aureus [10] = assay: Antimicrobial activity against vancomycin-intermediate Staphylococcus aureus isolate 10
Staphylococcus aureus [11] = assay: Antimicrobial activity against methicillin-susceptible Staphylococcus aureus isolate 2
Staphylococcus aureus [12] = assay: Antimicrobial activity against vancomycin-resistant Staphylococcus aureus isolate 14
Staphylococcus aureus [13] = assay: Antimicrobial activity against vancomycin-resistant Staphylococcus aureus isolate 13
Staphylococcus aureus [14] = assay: Antimicrobial activity against methicillin-susceptible Staphylococcus aureus isolate 1
Staphylococcus aureus [15] = assay: Antimicrobial activity against methicillin-susceptible Staphylococcus aureus isolate 3

## CC12C[C@@]34C=CC(=O)[C@@](C)(CCC(=O)Nc5c(O)ccc(C(=O)O)c5O)C3[C@H](CC1C4)O2 (mixture of isomers) [PLATENSIMYCIN]
Staphylococcus aureus [1]
  MIC: 2 µg/mL
Staphylococcus aureus [2]
  MIC: 4 µg/mL
Staphylococcus aureus [3]
  MIC: 4 µg/mL
Staphylococcus aureus [4]
  MIC: 16 µg/mL
Staphylococcus aureus [5]
  MIC: 1 µg/mL
Staphylococcus aureus [6]
  MIC: 4 µg/mL
Staphylococcus aureus [7]
  MIC: 0.5 µg/mL
Staphylococcus aureus [8]
  MIC: 2 µg/mL
Staphylococcus aureus [9]
  MIC: 4 µg/mL
Staphylococcus aureus [10]
  MIC: 4 µg/mL
Staphylococcus aureus [11]
  MIC: 64 µg/mL
Staphylococcus aureus [12]
  MIC: 0.5 µg/mL
Staphylococcus aureus [13]
  MIC: 1 µg/mL
Staphylococcus aureus [14]
  MIC: 4 µg/mL
Staphylococcus aureus [15]
  MIC: 128 µg/mL

## CC12CC3CC4(C=CC(=O)C(C)(CCC(=O)Nc5c(O)ccc(C(=O)O)c5O)C4C3O1)C2 (racemic) [ISOPLATENSIMYCIN]
Staphylococcus aureus [1]
  MIC: 128 µg/mL (≈ 290 µM)
Staphylococcus aureus [2]
  MIC: > 128 µg/mL
Staphylococcus aureus [3]
  MIC: > 128 µg/mL
Staphylococcus aureus [4]
  MIC: > 128 µg/mL
Staphylococcus aureus [5]
  MIC: 64 µg/mL (≈ 145 µM)
Staphylococcus aureus [6]
  MIC: > 128 µg/mL
Staphylococcus aureus [7]
  MIC: 4 µg/mL (≈ 9.06 µM)
Staphylococcus aureus [8]
  MIC: 16 µg/mL (≈ 36.2 µM)
Staphylococcus aureus [9]
  MIC: > 128 µg/mL
Staphylococcus aureus [10]
  MIC: > 128 µg/mL
Staphylococcus aureus [11]
  MIC: > 128 µg/mL
Staphylococcus aureus [12]
  MIC: 2 µg/mL (≈ 4.53 µM)
Staphylococcus aureus [13]
  MIC: 32 µg/mL (≈ 72.5 µM)
Staphylococcus aureus [14]
  MIC: 128 µg/mL (≈ 290 µM)
Staphylococcus aureus [15]
  MIC: > 128 µg/mL

## Cc1onc(-c2ccccc2)c1C(=O)N[C@@H]1C(=O)N2[C@@H]1SC(C)(C)[C@@H]2C(=O)O [OXACILLIN]
Staphylococcus aureus [1]
  MIC: 0.5 µg/mL (≈ 1.25 µM)
Staphylococcus aureus [2]
  MIC: > 128 µg/mL
Staphylococcus aureus [3]
  MIC: > 128 µg/mL
Staphylococcus aureus [4]
  MIC: 16 µg/mL (≈ 39.9 µM)
Staphylococcus aureus [6]
  MIC: > 128 µg/mL
Staphylococcus aureus [9]
  MIC: > 128 µg/mL
Staphylococcus aureus [10]
  MIC: > 128 µg/mL
Staphylococcus aureus [11]
  MIC: 0.5 µg/mL (≈ 1.25 µM)
Staphylococcus aureus [14]
  MIC: 0.125 µg/mL (≈ 0.311 µM)
Staphylococcus aureus [15]
  MIC: 0.125 µg/mL (≈ 0.311 µM)

## CN[C@H](CC(C)C)C(=O)N[C@H]1C(=O)N[C@@H](CC(N)=O)C(=O)N[C@H]2C(=O)N[C@H]3C(=O)N[C@H](C(=O)N[C@H](C(=O)O)c4cc(O)cc(O)c4-c4cc3ccc4O)[C@H](O)c3ccc(c(Cl)c3)Oc3cc2cc(c3O[C@@H]2O[C@H](CO)[C@@H](O)[C@H](O)[C@H]2O[C@H]2C[C@](C)(N)[C@H](O)[C@H](C)O2)Oc2ccc(cc2Cl)[C@H]1O [VANCOMYCIN]
Staphylococcus aureus [5]
  MIC: 32 µg/mL (≈ 22.1 µM)
Staphylococcus aureus [7]
  MIC: > 128 µg/mL
Staphylococcus aureus [12]
  MIC: > 128 µg/mL
Staphylococcus aureus [13]
  MIC: 128 µg/mL (≈ 88.3 µM)
